Measurements taken from US10336761B2, “TGFβ receptor antagonist” (BRISTOL-MYERS SQUIBB COMPANY, priority 2015, dated 2019).

target: HIS-TGFβR1 T204D (Homo sapiens (Human), UniProt P36897, T204D); experiment: HTRF probe-displacement assay, HIS-TGFβR1 T204D; type: binding; conditions: 1 hour at room temperature
Sequence (P36897 34-503 T204D): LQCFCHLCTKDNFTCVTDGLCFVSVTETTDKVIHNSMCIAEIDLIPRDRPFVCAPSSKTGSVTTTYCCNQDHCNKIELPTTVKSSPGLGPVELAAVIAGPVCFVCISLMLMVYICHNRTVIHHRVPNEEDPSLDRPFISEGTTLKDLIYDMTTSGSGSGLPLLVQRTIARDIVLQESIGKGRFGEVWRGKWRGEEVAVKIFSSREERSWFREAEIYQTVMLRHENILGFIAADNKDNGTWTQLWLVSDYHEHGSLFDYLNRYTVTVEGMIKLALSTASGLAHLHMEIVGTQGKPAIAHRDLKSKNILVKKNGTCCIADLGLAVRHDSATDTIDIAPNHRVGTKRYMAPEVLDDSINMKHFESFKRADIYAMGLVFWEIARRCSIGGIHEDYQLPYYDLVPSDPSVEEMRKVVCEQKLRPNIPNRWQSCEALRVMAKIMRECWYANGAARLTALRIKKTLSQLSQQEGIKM

Row | IC50 [nM] | Compound
1 | 2.2 | Cc1cccc(-c2nc(Nc3ccncn3)c3cccn3n2)n1 [Example 64, N-[2-(6-methylpyridin-2-yl)pyrrolo[2,1-f][1,2,4]triazin-4-yl]pyrimidin-4-amine]
2 | 0.37 | O=C(Nc1cc(Nc2nc(-c3cccc(C(F)(F)F)n3)nn3cccc23)ccn1)C1CC1 [Example 335, N-[4-({2-[6-(trifluoromethyl)pyridin-2-yl]pyrrolo[2,1-f][1,2,4]triazin-4-yl}amino)pyridin-2-yl]cyclopropanecarboxamide]
3 | 23 | Fc1cnccc1Nc1nc(-c2ccccn2)nn2ccc(CNCC3CNCCO3)c12 (stereo not drawn) [Example 299, 3-fluoro-N-(5-{[(morpholin-2-ylmethyl)amino]methyl}-2-(pyridin-2-yl)pyrrolo[2,1-f][1,2,4]triazin-4-yl)pyridin-4-amine]
4 | 2.9 | COc1cccc(-c2nc(Nc3ccnc(NC(C)=O)c3)c3cccn3n2)n1 [Example 97, N-(4-{[2-(6-methoxypyridin-2-yl)pyrrolo[2,1-f][1,2,4]triazin-4-yl]amino}pyridin-2-yl)acetamide]
5 | 1.6 | NC(=O)c1cnccc1Nc1nc(-c2cccc(C(F)F)n2)nn2cccc12 [Example 228, 4-({2-[6-(difluoromethyl)pyridin-2-yl]pyrrolo[2,1-f][1,2,4]triazin-4-yl}amino)pyridine-3-carboxamide]
6 | 55 | COc1cccc(-c2nc(Nc3ccncn3)c3cccn3n2)n1 [Example 67, N-[2-(6-methoxypyridin-2-yl)pyrrolo[2,1-f][1,2,4]triazin-4-yl]pyrimidin-4-amine]
7 | 0.82 | Cc1nc(-c2nc(Nc3ccncc3Cl)c3cccn3n2)ccc1F [Example 3, 3-chloro-N-[2-(5-fluoro-6-methylpyridin-2-yl)pyrrolo[2,1-f][1,2,4]triazin-4-yl]pyridin-4-amine]
8 | 13 | Fc1cnccc1Nc1nc(-c2ccccn2)nn2ccc(CNC3CNC3)c12 [Example 311, N-(5-{[(azetidin-3-yl)amino]methyl}-2-(pyridin-2-yl)pyrrolo[2,1-f][1,2,4]triazin-4-yl)-3-fluoropyridin-4-amine]
9 | 480 | COc1cccc(-c2nc(Nc3ccnc(NCCN4CCC(F)(F)CC4)c3)c3cccn3n2)n1 [Example 34, 2-N-[2-(4,4-difluoropiperidin-1-yl)ethyl]-4-N-[2-(6-methoxypyridin-2-yl)pyrrolo[2,1-f][1,2,4]triazin-4-yl]pyridine-2,4-diamine]
10 | 24 | CCOCCCNC(=O)c1cnccc1Nc1nc(-c2cccc(C(F)F)n2)nn2cccc12 [Example 172, 4-({2-[6-(difluoromethyl)pyridin-2-yl]pyrrolo[2,1-f][1,2,4]triazin-4-yl}amino)-N-(3-ethoxypropyl)pyridine-3-carboxamide]
11 | 690 | COc1cccc(-c2nc(Nc3ccncc3F)c3cc(NC(=O)N4CCOCC4)cn3n2)n1 [Example 105, N-{4-[(3-fluoropyridin-4-yl)amino]-2-(6-methoxypyridin-2-yl)pyrrolo[2,1-f][1,2,4]triazin-6-yl}morpholine-4-carboxamide]
12 | 370 | CCNC(=O)Nc1cc2c(Nc3ccncc3F)nc(-c3cccc(OC)n3)nn2c1 [Example 72, 3-ethyl-1-{4-[(3-fluoropyridin-4-yl)amino]-2-(6-methoxypyridin-2-yl)pyrrolo[2,1-f][1,2,4]triazin-6-yl}urea]
13 | 76 | Cc1cccc(-c2nc(Nc3ccncc3)c3cc(C(=O)NCCCN4CCCC4)cn3n2)n1 [Example 50, 2-(6-methylpyridin-2-yl)-4-[(pyridin-4-yl)amino]-N-[3-(pyrrolidin-1-yl)propyl]pyrrolo[2,1-f][1,2,4]triazine-6-carboxamide]
14 | 9.1 | CN1CCN(Cc2ccn3nc(-c4ccccn4)nc(Nc4ccncc4F)c23)CC1 [Example 127, 3-fluoro-N-{5-[(4-methylpiperazin-1-yl)methyl]-2-(pyridin-2-yl)pyrrolo[2,1-f][1,2,4]triazin-4-yl}pyridin-4-amine]
15 | 23 | O=C(NC1CCC1)c1cnccc1Nc1nc(-c2cccc(C(F)F)n2)nn2cccc12 [Example 193, N-cyclobutyl-4-({2-[6-(difluoromethyl)pyridin-2-yl]pyrrolo[2,1-f][1,2,4]triazin-4-yl}amino)pyridine-3-carboxamide]
16 | 5.6 | CC(C)CC(=O)Nc1cc(Nc2nc(-c3cccc(C(F)(F)F)n3)nn3cccc23)ccn1 [Example 314, 3-methyl-N-[4-({2-[6-(trifluoromethyl)pyridin-2-yl]pyrrolo[2,1-f][1,2,4]triazin-4-yl}amino)pyridin-2-yl]butanamide]
17 | 1700 | COc1cccc(-c2nc(Nc3ccncc3F)c3cc(CCN4CCN(C)CC4)cn3n2)n1 [Example 44, 3-fluoro-N-[2-(6-methoxypyridin-2-yl)-6-[2-(4-methylpiperazin-1-yl)ethyl]pyrrolo[2,1-f][1,2,4]triazin-4-yl]pyridin-4-amine]
18 | 1.3 | Fc1cnccc1Nc1nc(-c2ccccn2)nn2ccc(CN3CCC(F)(F)CC3)c12 [Example 27, N-{5-[(4,4-difluoropiperidin-1-yl)methyl]-2-(pyridin-2-yl)pyrrolo[2,1-f][1,2,4]triazin-4-yl}-3-fluoropyridin-4-amine]

Row | IC50 [nM] | Compound
19 | 4.4 | Fc1cnccc1Nc1nc(-c2ccccn2)nn2ccc(CNCCN3CCCCC3)c12 [Example 284, 3-fluoro-N-[5-({[2-(piperidin-1-yl)ethyl]amino}methyl)-2-(pyridin-2-yl)pyrrolo[2,1-f][1,2,4]triazin-4-yl]pyridin-4-amine]
20 | 0.59 | O[C@H]1CCN(Cc2ccn3nc(-c4cccc(C(F)F)n4)nc(Nc4ccncc4F)c23)C1 [Example 251, (3S)-1-({2-[6-(difluoromethyl)pyridin-2-yl]-4-[(3-fluoropyridin-4-yl)amino]pyrrolo[2,1-f][1,2,4]triazin-5-yl}methyl)pyrrolidin-3-ol]
21 | 3.6 | CC(=O)Nc1cc(Nc2nc(-c3ccc(F)cn3)nn3cccc23)ccn1 [Example 227, N-(4-{[2-(5-fluoropyridin-2-yl)pyrrolo[2,1-f][1,2,4]triazin-4-yl]amino}pyridin-2-yl)acetamide]
22 | 23 | O=C(NCCOCCO)c1cnccc1Nc1nc(-c2cccc(C(F)F)n2)nn2cccc12 [Example 174, 4-({2-[6-(difluoromethyl)pyridin-2-yl]pyrrolo[2,1-f][1,2,4]triazin-4-yl}amino)-N-[2-(2-hydroxyethoxy)ethyl]pyridine-3-carboxamide]
23 | 70 | CC(O)c1cccc(-c2nc(Nc3ccncc3F)c3cccn3n2)n1 (stereo not drawn) [Example 32, 1-(6-{4-[(3-fluoropyridin-4-yl)amino]pyrrolo[2,1-f][1,2,4]triazin-2-yl}pyridin-2-yl)ethan-1-ol]
24 | 53 | CCOC(=O)CCNC(=O)c1cnccc1Nc1nc(-c2cccc(C(F)F)n2)nn2cccc12 [Example 204, Ethyl 3-{[4-({2-[6-(difluoromethyl)pyridin-2-yl]pyrrolo[2,1-f][1,2,4]triazin-4-yl}amino)pyridin-3-yl]formamido}propanoate]
25 | 0.47 | Oc1cccc(N2CCN(Cc3ccn4nc(-c5ccccn5)nc(Nc5ccncc5F)c34)CC2)c1 [Example 275, 3-[4-({4-[(3-fluoropyridin-4-yl)amino]-2-(pyridin-2-yl)pyrrolo[2,1-f][1,2,4]triazin-5-yl}methyl)piperazin-1-yl]phenol]
26 | 81 | COc1cccc(-c2nc(Nc3ccncc3F)c3cc(NS(=O)(=O)C4CC4)cn3n2)n1 [Example 107, N-{4-[(3-fluoropyridin-4-yl)amino]-2-(6-methoxypyridin-2-yl)pyrrolo[2,1-f][1,2,4]triazin-6-yl}cyclopropanesulfonamide]
27 | < 0.25 | CC(C)(O)CNCc1ccn2nc(-c3ccc(F)cn3)nc(Nc3ccncc3F)c12 [Example 235, 1-({[2-(5-fluoropyridin-2-yl)-4-[(3-fluoropyridin-4-yl)amino]pyrrolo[2,1-f][1,2,4]triazin-5-yl]methyl}amino)-2-methylpropan-2-ol]
28 | 190 | Fc1cnccc1Nc1nc(-c2ccc[nH]2)nn2cccc12 [Example 89, 3-fluoro-N-[2-(1H-pyrrol-2-yl)pyrrolo[2,1-f][1,2,4]triazin-4-yl]pyridin-4-amine]
29 | 12 | CS(=O)(=O)Nc1cccc(-c2nc(Nc3ccncc3F)c3cccn3n2)n1 [Example 77, N-(6-{4-[(3-fluoropyridin-4-yl)amino]pyrrolo[2,1-f][1,2,4]triazin-2-yl}pyridin-2-yl)methanesulfonamide]
30 | 33 | CCOC(=O)c1cc2c(Nc3ccncc3)nc(-c3cccc(C)n3)nn2c1 [Example 216, Ethyl 2-(6-methylpyridin-2-yl)-4-[(pyridin-4-yl)amino]pyrrolo[2,1-f][1,2,4]triazine-6-carboxylate]
31 | 2.9 | NCCCNCc1ccn2nc(-c3ccccn3)nc(Nc3ccncc3F)c12 [Example 286, N-(5-{[(3-aminopropyl)amino]methyl}-2-(pyridin-2-yl)pyrrolo[2,1-f][1,2,4]triazin-4-yl)-3-fluoropyridin-4-amine]
32 | 360 | Cn1nccc1-c1nc(Nc2ccncc2Cl)c2cccn2n1 [Example 81, 3-chloro-N-[2-(1-methyl-1H-pyrazol-5-yl)pyrrolo[2,1-f][1,2,4]triazin-4-yl]pyridin-4-amine]
33 | 0.79 | Fc1ccc(-c2nc(Nc3ccncc3F)c3cccn3n2)nc1 [Example 65, 3-fluoro-N-[2-(5-fluoropyridin-2-yl)pyrrolo[2,1-f][1,2,4]triazin-4-yl]pyridin-4-amine]
34 | 22 | CCOC(=O)CNC(=O)c1cnccc1Nc1nc(-c2cccc(C(F)F)n2)nn2cccc12 [Example 190, Ethyl 2-{[4-({2-[6-(difluoromethyl)pyridin-2-yl]pyrrolo[2,1-f][1,2,4]triazin-4-yl}amino)pyridin-3-yl]formamido}acetate]
35 | 32 | CN1CCN(Cc2ccn3nc(-c4cccc(C(F)(F)F)n4)nc(Nc4ccncc4F)c23)CC1 [Example 26, 3-fluoro-N-{5-[(4-methylpiperazin-1-yl)methyl]-2-[6-(trifluoromethyl)pyridin-2-yl]pyrrolo[2,1-f][1,2,4]triazin-4-yl}pyridin-4-amine]
36 | 14 | CCCNC(=O)c1cnccc1Nc1nc(-c2cccc(C(F)F)n2)nn2cccc12 [Example 184, 4-({2-[6-(difluoromethyl)pyridin-2-yl]pyrrolo[2,1-f][1,2,4]triazin-4-yl}amino)-N-propylpyridine-3-carboxamide]
